In US20220112199A1, “EGFR INHIBITOR FOR MEDICAL USE” (Hoffmann-La Roche Inc., priority 2019, published 2022):

Molecular target: T1, EGFR TMLRCS (T790M/L858R/C797S) in BaF3-TMLRCS cell line (Homo sapiens, UniProt P00533, C797S/L858R/T790M)
T1 construct: host or cells: BaF3 (BaF3-TMLRCS cell line)
Assay: HTRF Phospho EGFR TMLRCS Assay (Cellular)
Assay type: cell-based
Conditions: BaF3-TMLRCS cells, 4 hours incubation
Method: HTRF Phospho EGFR TMLRCS Assay (Cellular)
BaF3-TMLRCS cell line were obtained from Crownbio (San Diego, Calif., USA). Cells were maintained at 37° C., 5% CO2 in RPMI ATCC (Gibco 31870)+2 mM Glutamine+0.5 μg/ml Puromycin supplemented with 10% fetal bovine serum (FBS) (Gibco).
Cells are transferred as above to Greiner Bio-One, Nr. 784-08 micro-titerplate at 20000 cells/well in 12.5 μl of growth medium/well after the plates had been pre-filled with 12.5 nl of DMSO solutions of the to be tested compounds (in dose response) or DMSO only. After spinning the plates at 300 ×g for 30 seconds the cells were incubated for 4 hours at 37 C, 5% CO2, 95% humidity. The cells were lysed by adding to the compound mix 4 μl/well of the supplemented lysis buffer (Cis-bio, Phospho-EGFR HTRF kit, 64EG1PEH), followed by incubation for 30 min at room temperature with shaking (400 rpm). The plates were then frozen and stored overnight at −80 C. […] The lidded plates were then incubated for 4 h at room temperature before reading the fluorescence emission at 616 and 665 nm using an Envision reader (Perkin Elmer). Data was analyzed in similar fashion as above using the normalized ratio of the 665 to 616 signals multiplied by 10000.

T1 sequence (P00533 25-1210 T790M/C797S/L858R): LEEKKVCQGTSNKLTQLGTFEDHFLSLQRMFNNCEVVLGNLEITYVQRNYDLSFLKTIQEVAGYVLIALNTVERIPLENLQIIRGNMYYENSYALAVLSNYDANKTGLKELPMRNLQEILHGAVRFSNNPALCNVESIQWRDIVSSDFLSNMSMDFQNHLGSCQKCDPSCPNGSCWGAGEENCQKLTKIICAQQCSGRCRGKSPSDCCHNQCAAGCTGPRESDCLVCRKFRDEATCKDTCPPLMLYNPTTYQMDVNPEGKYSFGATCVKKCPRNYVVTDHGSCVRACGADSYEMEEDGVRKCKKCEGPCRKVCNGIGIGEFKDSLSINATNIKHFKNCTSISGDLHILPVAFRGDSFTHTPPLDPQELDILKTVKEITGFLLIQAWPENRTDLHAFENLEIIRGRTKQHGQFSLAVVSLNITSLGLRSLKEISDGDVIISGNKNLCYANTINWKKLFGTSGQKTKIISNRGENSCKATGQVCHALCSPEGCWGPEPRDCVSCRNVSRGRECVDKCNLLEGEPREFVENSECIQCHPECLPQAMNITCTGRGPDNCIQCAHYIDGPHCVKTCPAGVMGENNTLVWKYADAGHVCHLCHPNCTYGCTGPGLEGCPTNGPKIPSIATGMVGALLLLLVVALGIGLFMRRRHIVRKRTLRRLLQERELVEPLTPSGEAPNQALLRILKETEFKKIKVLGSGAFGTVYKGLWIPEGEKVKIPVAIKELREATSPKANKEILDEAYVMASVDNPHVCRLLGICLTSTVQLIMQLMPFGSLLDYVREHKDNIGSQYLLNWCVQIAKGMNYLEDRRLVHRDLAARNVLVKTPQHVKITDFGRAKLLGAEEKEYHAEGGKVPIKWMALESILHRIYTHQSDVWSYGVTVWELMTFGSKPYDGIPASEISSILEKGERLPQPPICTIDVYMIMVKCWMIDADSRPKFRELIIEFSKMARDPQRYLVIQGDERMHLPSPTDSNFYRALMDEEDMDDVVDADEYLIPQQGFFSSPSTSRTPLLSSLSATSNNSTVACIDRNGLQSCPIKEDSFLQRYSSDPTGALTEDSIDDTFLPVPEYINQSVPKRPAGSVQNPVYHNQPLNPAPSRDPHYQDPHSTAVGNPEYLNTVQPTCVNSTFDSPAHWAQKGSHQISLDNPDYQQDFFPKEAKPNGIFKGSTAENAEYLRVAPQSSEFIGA

IC50: 14 nM
Structure (SMILES): O=C(Nc1nccs1)C(c1ncn2c1CCC2)N1Cc2c(cc(C#Cc3ccc(CN4CCC(O)CC4)cc3)cc2C(F)(F)F)C1=O (racemic) [Example 1, (2RS)-2-(6,7-Dihydro-5H-pyrrolo[1,2-c]imidazol-1-yl)-2-[6-[2-[4-[(4-hydroxy-1-piperidyl)methyl]phenyl]ethynyl]-1-oxo-4-(trifluoromethyl)isoindolin-2-yl]-N-thiazol-2-yl-acetamide]
